Experimental data taken from patent US20070071727A1, “Melanocytes in therapy of neurodegenerative diseases” (priority 2003, published 2007).

How the values were obtained:
control melanocytes = assay type: cell-based, human; settings: 10 days exposure; only at the highest concentration step 5.0 μg/ml
[1] = system: Parkinson's melanocytes and normal adult control melanocytes; assay: short time exposure (24 h), DNA synthesis by 3HdT incorporation and scintillation counts; assay type: cell-based, human; settings: 24 h exposure; 0.5 μg/ml to 5.0 μg/ml

Row | SMILES | impact on the growth of the control melanocytes (control melanocytes) | difference in vulnerability between Parkinson's melanocytes and normal adult control melanocytes (DNA synthesis, 3HdT incorporation) [1]
1 | CCCCC[C@H](O)/C=C/[C@H]1C=CC(=O)[C@@H]1C/C=C\CCCC(=O)O [PGA2] | negative impact on the growth | no significant different in vulnerability
2 | CCCCC[C@H](O)/C=C/[C@H]1[C@H](O)CC(=O)[C@@H]1C/C=C\CCCC(=O)O [PGE2] | – | no significant different in vulnerability
3 | CCCCC[C@H](O)/C=C/[C@@H]1[C@@H](C/C=C\CCCC(=O)O)[C@@H](O)C[C@H]1O [PGF2a] | – | no significant different in vulnerability
4 | CCCCC[C@H](O)/C=C/[C@H]1C(=O)C=C[C@@H]1C/C=C\CCCC(=O)O [PGJ2] | negative impact on the growth | no significant different in vulnerability
